{"source": "patent US11083725B2", "about": "(priority 2014, dated 2021)", "key": {"CA09 [1]": {"tested_on": "CA09", "assay": "In vivo drug tests in CA09-infected mice: weight loss, survival, lung viral titer", "parameters": "species or system C57/B6 mice"}, "CA09 [2]": {"tested_on": "CA09", "assay": "microbe, parasite or virus in culture", "format": "cell-based, influenza virus H1N1 strain A/CA/04/2009"}, "NHBE cells [3]": {"tested_on": "NHBE cells", "assay": "cells", "format": "cell-based, human"}, "PI3K/mTOR pathway": {"tested_on": "PI3K/mTOR pathway", "assay": "Immunoblot of PI3K/mTOR pathway phosphorylation in infected NHBE cells", "format": "cell-based, human"}, "NHBE cells [4]": {"tested_on": "NHBE cells", "assay": "Seahorse spare respiratory and glycolytic capacity of infected NHBE cells", "format": "cell-based, human", "conditions": "10 nM BEZ235 for 1 hr, infected 17 hours at MOI 1 with CA04"}, "[5]": {"assay": "Blood chemistry and blood cell counts in treated infected mice", "format": "in vivo, C57/B6 mice", "conditions": "25 mg/kg daily oral gavage", "description": "Referring to FIG. 9A-E, daily drug treatment was started 48 hours before intranasal infection with CA09 at an infectious dose of […] and maintained for 7 days. […] Data represent 3 mice per group."}, "[6]": {"assay": "Whole-body plethysmography of respiratory parameters in infected treated mice"}, "cMyc": {"tested_on": "cMyc", "assay": "Influenza-induced cMyc expression in NHBE cells", "format": "cell-based, human", "conditions": "NHBE cells infected with CA04 up to 17 hours at MOI 1", "description": "Referring to FIG. 13B, NHBE cells were infected with CA04 for up to 17 hours at MOI 1, harvested at indicated time and RNA purified from lysates then quantified with […]."}, "NHBE cells [7]": {"tested_on": "NHBE cells", "assay": "Seahorse metabolic flux (ECAR, OCR, PPR) in NHBE cells", "format": "cell-based, human", "conditions": "drug 4 hours then infection at 1 MOI with CA04, read 17 hours later", "description": "OCR and ECAR were measured with the XF-24 Extracellular Flux Analyzer (Seahorse Bioscience, North Billerica, Mass.). Briefly, 2.5×10^5 cells/well were seeded with XF media (non-buffered DMEM with 25 mM glucose, 2 mM L-glutamine, and 1 mM sodium pyruvate) in a Cell-Tak (BD Biosciences, San Jose, Calif.)-coated plate 17 hours after infection and 1 hour before loading the plate into the instrument.\nReferring to FIG. 6A-C, NHBE cells were grown and differentiated in 24-well Seahorse plates and left untreated (control), infected for 17 hours at MOI 1 with either viable virus or a […] virus (CA09 or BPL, respectively) or stimulated with TLR agonists lipopolysaccharide (LPS), polyinosinic polycytidylic acid (PolyIC), or Resiquimod (R848). After treatment, the extracellular acidification rate (ECAR) (6A), oxygen consumption rate (OCR) (6B), and proton production rate (PPR) (6C) of NHBE cells were monitored for 2 hours. Error bars represent standard deviation from the mean of triplicate samples, where data represent 3 independent experiments.\nReferring to FIG. 12C-E, NHBE cells were seeded in XF24 SEAHORSE cell […] for 4 hours followed by infection at 1 MOI with CA04. 17 hours later plates were processed and read on Seahorse following manufactures protocol."}, "CA09 [8]": {"tested_on": "CA09", "assay": "High-throughput modified TCID50 viral titer of drug-screen supernatant on MDCK cells (area under the curve)", "format": "cell-based, influenza virus H1N1 strain A/CA/04/2009", "conditions": "supernatant of CA09-infected NHBE cells titrated on MDCK cells"}, "[9]": {"conditions": "NHBE, read-out: TCID50 (per mL)"}, "[10]": {"conditions": "infected mice, whole-body plethysmography"}}, "note": "“Also recorded” adds a separate entry of the source.", "data": [{"smiles": "Cn1c(=O)n(-c2ccc(C(C)(C)C#N)cc2)c2c3cc(-c4cnc5ccccc5c4)ccc3ncc21", "note": "[NVP-BEZ235]", "values": [{"measurement": "viral titer from the lungs (HA titer)", "setting": "CA09 [1]; four days following infection, NVP-BEZ235 25 mg/kg oral gavage, titered on MDCK cells, 25 mg/kg", "result": "significant reduction; also recorded: significantly lower"}, {"measurement": "influenza-induced mortality", "setting": "CA09 [1]; infected adult mice", "result": "reduces"}, {"measurement": "weight loss", "setting": "CA09 [1]; mice infected intranasally with CA09, daily drug for 7 days from 2 days before infection (NVP-BEZ235 25 mg/kg oral gavage; clotrimazole 120 mg/kg ip; α-mangostin 8 mg/kg ip)", "result": "no significant effects; also recorded: no effect"}, {"measurement": "survival", "setting": "CA09 [1]; mice infected intranasally with CA09, daily drug for 7 days from 2 days before infection, monitored 15 days", "result": "profound improvement; also recorded: dramatically improved"}, {"measurement": "Viral Titer Prophylactic", "setting": "CA09 [2]", "result": "Reduced"}, {"measurement": "viral titers in NHBE cells (validated drug hits)", "setting": "CA09 [2]", "result": "consistently reduced; also recorded: consistent reduction; also recorded: one of the most significant drops; also recorded: highest efficacy"}, {"measurement": "log reduction at 10 pM", "setting": "CA09 [2]; [9]", "result": 0.75}, {"measurement": "log reduction at 0.0001 µM", "setting": "CA09 [2]; [9]", "result": 0.42}, {"measurement": "log reduction at 0.001 µM", "setting": "CA09 [2]; [9]", "result": 0.5}, {"measurement": "log reduction at 0.01 µM", "setting": "CA09 [2]; [9]", "result": 0.53}, {"measurement": "log reduction at 0.1 µM", "setting": "CA09 [2]; [9]", "result": 0.29}, {"measurement": "log reduction at 1 µM", "setting": "CA09 [2]; [9]", "result": 0.51}, {"measurement": "log reduction at 10 µM", "setting": "CA09 [2]; [9]", "result": 0.97}, {"measurement": "log reduction at 100 µM", "setting": "CA09 [2]; [9]", "result": 0.91}, {"measurement": "Cell Death Prophylactic", "setting": "NHBE cells [3]", "result": "C = V"}, {"measurement": "Cell Death Therapeutic", "setting": "NHBE cells [3]", "result": "C > V"}, {"measurement": "NHBE cell survival / cell death after infection", "setting": "NHBE cells [3]", "result": "differentially affected; also recorded: differential effects"}, {"measurement": "4E-BP1 phosphorylation", "setting": "PI3K/mTOR pathway", "result": "completely abolished"}, {"measurement": "70S6K phosphorylation", "setting": "PI3K/mTOR pathway", "result": "completely abolished"}, {"measurement": "mTOR phosphorylation", "setting": "PI3K/mTOR pathway", "result": "reduces"}, {"measurement": "phosphorylation of PRAS40", "setting": "PI3K/mTOR pathway", "result": "time dependent decrease"}, {"measurement": "glycolytic capacity of infected NHBE", "setting": "NHBE cells [4]", "result": "slightly reducing; also recorded: slightly reduces"}, {"measurement": "spare respiratory capacity of infected NHBE", "setting": "NHBE cells [4]", "result": "restores"}, {"measurement": "tolerability", "setting": "[5]", "result": "well tolerated"}, {"measurement": "blood amylase", "setting": "[5]; bled on day 7", "result": "significantly altered"}, {"measurement": "blood protein levels", "setting": "[5]; bled on day 7", "result": "unchanged"}, {"measurement": "dehydration as measured by blood electrolyte levels and renal function", "setting": "[5]; bled on day 7", "result": "stable"}, {"measurement": "immune cell proliferation in the blood", "setting": "[5]; bled on day 7", "result": "no impact"}, {"measurement": "signs of toxicity in the blood chemistry analysis or in critical blood cell counts", "setting": "[5]; bled on day 7", "result": "no signs of toxicity"}, {"measurement": "respiratory function", "setting": "[6]; infected adult mice", "result": "augments"}, {"measurement": "breath frequency", "setting": "[6]; [10]", "result": "decreases"}, {"measurement": "expiration time", "setting": "[6]; [10]", "result": "increases"}, {"measurement": "inspiration time", "setting": "[6]; [10]", "result": "increases"}, {"measurement": "mid-expiratory tidal flow", "setting": "[6]; [10]", "result": "reduction"}, {"measurement": "minute volume", "setting": "[6]; [10]", "result": "decreases"}, {"measurement": "tidal flow", "setting": "[6]; [10]", "result": "decreases"}, {"measurement": "influenza-induced cMyc expression", "setting": "cMyc", "result": "ablates"}, {"measurement": "influenza induced metabolic flux (ECAR, OCR, PPR)", "setting": "NHBE cells [7]", "result": "reverse influenza induced metabolic flux to untreated levels; also recorded: reversed"}, {"measurement": "viral titers in the high-throughput screening", "setting": "CA09 [8]", "result": "reduced"}]}]}
